Results reported in US12083124B2 (Incyte Corporation, priority 2019, dated 2024).
Where two headings read alike, the source gives them in different places.

How the values were obtained:
[1] = biological target: wild-type un-phosphorylated FGFR2 (Homo sapiens, UniProt P21802); test: FGFR Enzymatic Assay (FRET peptide phosphorylation), FGFR2
Description: (§1) The inhibitor potency of the exemplified compounds was determined in an enzyme discontinuous assay that measures peptide phosphorylation using FRET measurements to detect product formation. Inhibitors were serially diluted in DMSO and a volume of 0.2 μL was transferred to the wells of a 384-well plate. […] Appropriate controls (enzyme blank and enzyme with no inhibitor) were included on the plate. […] The 10 μL/well reaction concentration of the peptide substrate was 500 nM whereas the ATP concentration was maintained near or below the ATP Km. The ATP Km values were pre-determined in a separate series of experiments. The reaction plate was incubated at 25° C. for 1 hr and the reactions were ended with the addition of 5 μL/well of quench solution (50 mM Tris, 150 mM NaCl, 0.5 mg/mL BSA, pH 7.8; 45 mM EDTA, 600 nM staurosporin, with Perkin Elmer Lance Reagents at 3.75 nM Eu-antibody PY20 and 180 nM APC-Streptavidin). The plate was allowed to equilibrate for ˜10 minutes at ambient temperature before scanning on a PheraStar plate reader (BMG Labtech) instrument.
(§2) Either GraphPad prism or XLfit was used to analyze the data. The IC50 values were derived by fitting the data to a four parameter logistic equation producing a sigmoidal dose-response curve with a variable Hill coefficient. Prism equation: Y=Bottom+(Top-Bottom)/(1+10^((Log IC50-X)*Hill slope)); XLfit equation: Y=(A+((B−A)/(1+((X/C)^D)))) where X is the logarithm of inhibitor concentration and Y is the response.
(§3) GraphPad prism3 was used to analyze the data. The IC50 values were derived by fitting the data to the equation for a sigmoidal dose-response with a variable slope. Y=Bottom+(Top-Bottom)/(1+10^((Log IC50-X)*Hill Slope)) where X is the logarithm of concentration and Y is the response.
(§4) The data in Table 1 was measured in wild-type un-phosphorylated FGFR1, FGFR2, FGFR3, and FGFR4 proteins.

[2] = biological target: wild-type un-phosphorylated FGFR1 (Homo sapiens, UniProt P11362); test: FGFR Enzymatic Assay (FRET peptide phosphorylation), FGFR1; conditions: pre-incubated for 4 hours
wild-type un-phosphorylated FGFR1, sequence (P11362 22-822): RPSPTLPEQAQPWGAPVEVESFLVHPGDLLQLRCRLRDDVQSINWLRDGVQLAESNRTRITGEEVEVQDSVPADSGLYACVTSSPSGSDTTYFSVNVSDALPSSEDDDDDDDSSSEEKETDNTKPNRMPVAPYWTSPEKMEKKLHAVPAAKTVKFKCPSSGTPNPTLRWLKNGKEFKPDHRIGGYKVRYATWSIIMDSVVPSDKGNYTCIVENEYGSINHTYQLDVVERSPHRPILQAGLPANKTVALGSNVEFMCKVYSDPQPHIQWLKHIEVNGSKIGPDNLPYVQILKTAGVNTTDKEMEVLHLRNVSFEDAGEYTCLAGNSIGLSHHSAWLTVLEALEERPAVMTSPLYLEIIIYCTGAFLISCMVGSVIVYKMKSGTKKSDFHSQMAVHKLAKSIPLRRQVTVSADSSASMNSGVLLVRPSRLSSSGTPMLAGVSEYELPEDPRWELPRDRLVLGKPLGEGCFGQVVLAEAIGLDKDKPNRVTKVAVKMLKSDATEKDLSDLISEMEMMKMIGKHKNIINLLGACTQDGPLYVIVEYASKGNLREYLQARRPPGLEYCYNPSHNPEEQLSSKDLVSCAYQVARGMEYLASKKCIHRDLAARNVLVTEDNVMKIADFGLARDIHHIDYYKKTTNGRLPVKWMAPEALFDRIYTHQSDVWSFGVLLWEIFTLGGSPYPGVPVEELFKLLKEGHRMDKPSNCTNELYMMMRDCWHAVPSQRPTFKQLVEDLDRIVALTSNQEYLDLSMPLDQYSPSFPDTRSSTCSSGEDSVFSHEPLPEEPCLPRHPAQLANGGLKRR
Description: as §1, §2, §3, §4

[3] = biological target: wild-type un-phosphorylated FGFR4 (Homo sapiens, UniProt P22455); test: FGFR Enzymatic Assay (FRET peptide phosphorylation), FGFR4
wild-type un-phosphorylated FGFR4, sequence (P22455 22-802): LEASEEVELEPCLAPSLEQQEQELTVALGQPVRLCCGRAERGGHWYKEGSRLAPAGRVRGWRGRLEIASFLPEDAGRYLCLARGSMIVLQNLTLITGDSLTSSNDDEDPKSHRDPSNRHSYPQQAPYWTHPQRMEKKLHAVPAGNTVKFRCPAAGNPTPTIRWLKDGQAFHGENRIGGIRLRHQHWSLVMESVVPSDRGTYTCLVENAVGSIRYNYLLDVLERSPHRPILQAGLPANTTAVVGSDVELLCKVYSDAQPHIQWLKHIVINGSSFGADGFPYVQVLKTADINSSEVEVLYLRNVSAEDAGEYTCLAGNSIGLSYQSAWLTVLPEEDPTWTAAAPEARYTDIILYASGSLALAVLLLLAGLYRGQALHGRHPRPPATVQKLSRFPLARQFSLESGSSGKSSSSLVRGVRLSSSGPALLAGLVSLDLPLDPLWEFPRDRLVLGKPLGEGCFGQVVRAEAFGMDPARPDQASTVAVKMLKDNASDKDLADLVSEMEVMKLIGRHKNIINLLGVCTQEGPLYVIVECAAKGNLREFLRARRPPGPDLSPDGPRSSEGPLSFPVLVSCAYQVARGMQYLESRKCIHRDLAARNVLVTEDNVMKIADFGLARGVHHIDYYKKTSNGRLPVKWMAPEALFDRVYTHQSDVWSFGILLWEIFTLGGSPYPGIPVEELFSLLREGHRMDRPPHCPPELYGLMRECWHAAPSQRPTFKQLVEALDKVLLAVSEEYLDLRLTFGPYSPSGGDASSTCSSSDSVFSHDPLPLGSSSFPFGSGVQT

[4] = biological target: wild-type un-phosphorylated FGFR3 (Homo sapiens, UniProt P22607); test: FGFR Enzymatic Assay (FRET peptide phosphorylation), FGFR3
wild-type un-phosphorylated FGFR3, sequence (P22607 23-806): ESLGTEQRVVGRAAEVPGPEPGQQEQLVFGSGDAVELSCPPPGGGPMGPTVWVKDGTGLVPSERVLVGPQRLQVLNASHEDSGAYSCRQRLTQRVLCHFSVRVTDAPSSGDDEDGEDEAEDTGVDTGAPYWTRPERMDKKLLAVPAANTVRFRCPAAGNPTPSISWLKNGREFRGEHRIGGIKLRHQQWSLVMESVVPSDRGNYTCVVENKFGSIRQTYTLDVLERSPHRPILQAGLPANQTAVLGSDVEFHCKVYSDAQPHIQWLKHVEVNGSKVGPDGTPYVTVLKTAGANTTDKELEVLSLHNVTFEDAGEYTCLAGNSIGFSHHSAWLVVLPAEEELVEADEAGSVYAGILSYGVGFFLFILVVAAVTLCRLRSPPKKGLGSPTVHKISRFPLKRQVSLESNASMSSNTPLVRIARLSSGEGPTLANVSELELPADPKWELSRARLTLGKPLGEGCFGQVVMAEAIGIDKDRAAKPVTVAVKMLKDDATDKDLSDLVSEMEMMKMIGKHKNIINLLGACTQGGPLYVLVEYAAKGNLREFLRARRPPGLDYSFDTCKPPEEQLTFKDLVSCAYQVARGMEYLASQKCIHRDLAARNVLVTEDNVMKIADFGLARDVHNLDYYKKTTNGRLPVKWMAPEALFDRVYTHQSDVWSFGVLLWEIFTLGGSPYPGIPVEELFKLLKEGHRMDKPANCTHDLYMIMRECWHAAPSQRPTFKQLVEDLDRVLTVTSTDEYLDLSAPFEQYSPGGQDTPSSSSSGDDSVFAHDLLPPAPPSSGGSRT

[5] = FGFR1, wild-type un-phosphorylated FGFR1
[6] = read-out: FGFR1, wild-type un-phosphorylated FGFR1
[7] = read-out: FGFR4, wild-type un-phosphorylated FGFR4, pre-incubated for 4 hours
[8] = read-out: FGFR2, wild-type un-phosphorylated FGFR2, pre-incubated for 4 hours

wild-type un-phosphorylated FGFR2, sequence (P21802 22-821): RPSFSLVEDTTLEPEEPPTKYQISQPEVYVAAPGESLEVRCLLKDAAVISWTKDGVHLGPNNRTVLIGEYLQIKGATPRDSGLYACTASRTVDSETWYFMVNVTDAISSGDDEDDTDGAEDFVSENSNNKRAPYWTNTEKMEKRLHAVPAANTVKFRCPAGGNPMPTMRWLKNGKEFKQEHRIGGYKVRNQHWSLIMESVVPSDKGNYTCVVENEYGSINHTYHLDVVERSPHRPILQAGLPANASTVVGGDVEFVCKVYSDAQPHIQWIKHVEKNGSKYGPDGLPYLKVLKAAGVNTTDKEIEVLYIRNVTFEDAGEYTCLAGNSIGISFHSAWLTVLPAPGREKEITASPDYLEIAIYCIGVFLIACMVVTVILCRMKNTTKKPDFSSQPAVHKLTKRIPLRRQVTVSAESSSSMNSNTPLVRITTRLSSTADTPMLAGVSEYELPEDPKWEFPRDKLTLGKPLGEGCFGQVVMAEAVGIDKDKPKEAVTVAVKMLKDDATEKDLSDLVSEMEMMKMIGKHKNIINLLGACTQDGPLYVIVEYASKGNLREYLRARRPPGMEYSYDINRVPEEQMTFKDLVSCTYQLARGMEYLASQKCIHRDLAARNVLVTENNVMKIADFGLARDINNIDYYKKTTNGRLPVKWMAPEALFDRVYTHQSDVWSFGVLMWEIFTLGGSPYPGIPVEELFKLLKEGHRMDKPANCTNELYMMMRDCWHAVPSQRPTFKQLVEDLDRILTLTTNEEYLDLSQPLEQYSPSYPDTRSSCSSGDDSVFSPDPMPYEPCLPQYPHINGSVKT

Compound | IC50 [1] [nM] | IC50 [2, 5] [nM] | IC50 [3] [nM] | IC50 [4] [nM] | IC50 [2, 6] [nM] | IC50 [3, 7] [nM] | IC50 [1, 8] [nM]
COc1cc2[nH]nc(-c3cnn(C4CN(C(=O)[C@@H](C)O)C4)c3)c2nc1-c1cccc2c1CCC2 [Example 123, (R)-1-(3-(4-(5-(2,3-Dihydro-1H-inden-4-yl)-6-methoxy-1H-pyrazolo[4,3-b]pyridin-3-yl)-1H-pyrazol-1-yl)azetidin-1-yl)-2-hydroxypropan-1-one] | < 6 | – | – | < 6 | 6 to 40 | 6 to 40 | –
COC(=O)N1CCC(c2ccc(-c3n[nH]c4cc(OC)c(-c5cccc6c5CCC6C#N)nc34)cn2)CC1 (centres unmarked) [Example 180, Methyl 4-(5-(5-(1-Cyano-2,3-dihydro-1H-inden-4-yl)-6-methoxy-1H-pyrazolo[4,3-b]pyridin-3-yl)pyridin-2-yl)piperidine-1-carboxylate] | < 6 | 40 to 100 | 40 to 100 | < 6 | – | – | –
COc1cc2[nH]nc(-c3cnn(C4CN(C(=O)C5(CO)CCC5)C4)c3)c2nc1-c1cccc2c1CCC2 [Example 139, (3-(4-(5-(2,3-Dihydro-1H-inden-4-yl)-6-methoxy-1H-pyrazolo[4,3-b]pyridin-3-yl)-1H-pyrazol-1-yl)azetidin-1-yl)(1-(hydroxymethyl)cyclobutyl)methanone] | < 6 | – | – | < 6 | 6 to 40 | 6 to 40 | –
COc1cc2[nH]nc(-c3ccc(N4CCOCC4)nc3)c2nc1-c1cccc(CC#N)c1C [Example 56, 2-(3-(6-Methoxy-3-(6-morpholinopyridin-3-yl)-1H-pyrazolo[4,3-b]pyridin-5-yl)-2-methylphenyl)acetonitrile] | – | > 100 | > 100 | < 6 | – | – | 6 to 40
COc1cc2[nH]nc(-c3cnn(C)c3)c2nc1-c1cccc(CC#N)c1C [Example 5, 2-(3-(6-Methoxy-3-(1-methyl-1H-pyrazol-4-yl)-1H-pyrazolo[4,3-b]pyridin-5-yl)-2-methylphenyl)acetonitrile] | – | > 100 | > 100 | < 6 | – | – | 6 to 40
CCN1CC(n2cc(-c3n[nH]c4cc(OC)c(-c5cccc6c5CCC6)nc34)cn2)C1 [Example 18, 5-(2,3-Dihydro-1H-inden-4-yl)-3-(1-(1-ethylazetidin-3-yl)-1H-pyrazol-4-yl)-6-methoxy-1H-pyrazolo[4,3-b]pyridine] | < 6 | 40 to 100 | > 100 | < 6 | – | – | –
COc1cc2[nH]nc(-c3ccc(C45CC4CN(C4CCOCC4)C5)nc3)c2nc1-c1cccc2c1CCC2 (centres unmarked) [Example 193, 5-(2,3-Dihydro-1H-inden-4-yl)-6-methoxy-3-(6-(3-(tetrahydro-2H-pyran-4-yl)-3-azabicyclo[3.1.0]hexan-1-yl)pyridin-3-yl)-1H-pyrazolo[4,3-b]pyridine] | < 6 | – | – | < 6 | 6 to 40 | 6 to 40 | –
COc1cc2[nH]nc(-c3cnn(C)c3)c2nc1-c1cccc2c1OCC2 [Example 4, 5-(2,3-Dihydrobenzofuran-7-yl)-6-methoxy-3-(1-methyl-1H-pyrazol-4-yl)-1H-pyrazolo[4,3-b]pyridine] | – | > 100 | > 100 | < 6 | – | – | 6 to 40
COc1cc2[nH]nc(-c3cnn([C@H]4CCN(C(=O)[C@H]5C[C@H](O)C5)C4)c3)c2nc1-c1cccc2c1CCC2 [Example 144, ((S)-3-(4-(5-(2,3-Dihydro-1H-inden-4-yl)-6-methoxy-1H-pyrazolo[4,3-b]pyridin-3-yl)-1H-pyrazol-1-yl)pyrrolidin-1-yl)((trans)-3-hydroxycyclobutyl)methanone] | < 6 | – | – | < 6 | 6 to 40 | 6 to 40 | –

Further lines, results first:

IC50 [1] [nM] | IC50 [2, 5] [nM] | IC50 [3] [nM] | IC50 [4] [nM] | IC50 [2, 6] [nM] | IC50 [3, 7] [nM] | IC50 [1, 8] [nM] | Compound
< 6 | 40 to 100 | 40 to 100 | < 6 | – | – | – | COc1cc2[nH]nc(-c3ccc(CN4CCC(O)CC4)nc3)c2nc1-c1cccc2c1CCC2 [Example 160, 1-((5-(5-(2,3-Dihydro-1H-inden-4-yl)-6-methoxy-1H-pyrazolo[4,3-b]pyridin-3-yl)pyridin-2-yl)methyl)piperidin-4-ol]
< 6 | – | > 100 | < 6 | 6 to 40 | – | – | COc1cc2[nH]nc(-c3ccc(N4CCN(C(C)C)CC4)cc3)c2nc1-c1cccc2c1CCC2 [Example 62, 5-(2,3-Dihydro-1H-inden-4-yl)-3-(4-(4-isopropylpiperazin-1-yl)phenyl)-6-methoxy-1H-pyrazolo[4,3-b]pyridine]
< 6 | 40 to 100 | 40 to 100 | < 6 | – | – | – | COc1cc2[nH]nc(-c3cnn(C)c3)c2nc1-c1cccc2c1CCC2 [Example 2, 5-(2,3-Dihydro-1H-inden-4-yl)-6-methoxy-3-(1-methyl-1H-pyrazol-4-yl)-1H-pyrazolo[4,3-b]pyridine]
< 6 | – | – | < 6 | 6 to 40 | 6 to 40 | – | COc1cc2[nH]nc(-c3ccc(N4CCN(C(N)=O)CC4)nc3)c2nc1-c1cccc2c1CCC2 [Example 60, 4-(5-(5-(2,3-Dihydro-1H-inden-4-yl)-6-methoxy-1H-pyrazolo[4,3-b]pyridin-3-yl)pyridin-2-yl)piperazine-1-carboxamide]
< 6 | – | – | < 6 | 6 to 40 | 6 to 40 | – | COc1cc2[nH]nc(-c3ccc(C45CC4CN(CCO)C5)nc3)c2nc1-c1cccc2c1CCC2 (centres unmarked) [Example 194A, 2-(1-(5-(5-(2,3-Dihydro-1H-inden-4-yl)-6-methoxy-1H-pyrazolo[4,3-b]pyridin-3-yl)pyridin-2-yl)-3-azabicyclo[3.1.0]hexan-3-yl)ethan-1-ol]
< 6 | – | – | < 6 | 6 to 40 | 6 to 40 | – | COc1cc2[nH]nc(-c3ccc(C4CCC(N(C)C(=O)CO)C4)nc3)c2nc1-c1cccc2c1CCC2 (single isomer, unassigned) [Example 155, N-(3-(5-(5-(2,3-Dihydro-1H-inden-4-yl)-6-methoxy-1H-pyrazolo[4,3-b]pyridin-3-yl)pyridin-2-yl)cyclopentyl)-2-hydroxy-N-methylacetamide]
– | > 100 | > 100 | < 6 | – | – | 6 to 40 | COc1cc2[nH]nc(-c3ccc(N4CCOCC4)nc3)c2nc1-c1cccc(C)c1C [Example 44, 4-(5-(5-(2,3-Dimethylphenyl)-6-methoxy-1H-pyrazolo[4,3-b]pyridin-3-yl)pyridin-2-yl)morpholine]
< 6 | – | 40 to 100 | < 6 | 6 to 40 | – | – | COc1cc2[nH]nc(-c3ccc(C4CC(N(C)C(=O)[C@H](C)O)C4)nc3)c2nc1-c1cccc2c1CCC2 (stereo partly drawn) [Example 190, (S)-N-(3-(5-(5-(2,3-Dihydro-1H-inden-4-yl)-6-methoxy-1H-pyrazolo[4,3-b]pyridin-3-yl)pyridin-2-yl)cyclobutyl)-2-hydroxy-N-methylpropanamide]
